The values below are quoted from earlier work in patent EP1017727B1, “COMPOSITION AND PHARMACEUTICAL PREPARATION CONTAINING SAME FOR THE TREATMENT OF HERPES AND RELATED VIRAL INFECTIONS” (priority 1997, dated 1999).

In brackets after ≈: the same amount, converted by molar mass.

The test system of the series is HSV-1.

geponin: the “IC50 against HSV-1” value is 25 µg/mL.
Consider `O=Cc1cc(O)c(O)c(O)c1` [gallic aldehyde], for which the “IC50 against HSV-1” value is 12.5 µg/mL (≈ 81.1 µM).
